Data on three molecules can be found in ChEMBL document CHEMBL1201862, “PubChem BioAssay data set” (2004).

Holding throughout (format): functional
The target of assay [1] is T1, Replicative DNA helicase DnaB (Mycobacterium tuberculosis, UniProt P9WMR3).
T1 sequence (P9WMR3 whole entry): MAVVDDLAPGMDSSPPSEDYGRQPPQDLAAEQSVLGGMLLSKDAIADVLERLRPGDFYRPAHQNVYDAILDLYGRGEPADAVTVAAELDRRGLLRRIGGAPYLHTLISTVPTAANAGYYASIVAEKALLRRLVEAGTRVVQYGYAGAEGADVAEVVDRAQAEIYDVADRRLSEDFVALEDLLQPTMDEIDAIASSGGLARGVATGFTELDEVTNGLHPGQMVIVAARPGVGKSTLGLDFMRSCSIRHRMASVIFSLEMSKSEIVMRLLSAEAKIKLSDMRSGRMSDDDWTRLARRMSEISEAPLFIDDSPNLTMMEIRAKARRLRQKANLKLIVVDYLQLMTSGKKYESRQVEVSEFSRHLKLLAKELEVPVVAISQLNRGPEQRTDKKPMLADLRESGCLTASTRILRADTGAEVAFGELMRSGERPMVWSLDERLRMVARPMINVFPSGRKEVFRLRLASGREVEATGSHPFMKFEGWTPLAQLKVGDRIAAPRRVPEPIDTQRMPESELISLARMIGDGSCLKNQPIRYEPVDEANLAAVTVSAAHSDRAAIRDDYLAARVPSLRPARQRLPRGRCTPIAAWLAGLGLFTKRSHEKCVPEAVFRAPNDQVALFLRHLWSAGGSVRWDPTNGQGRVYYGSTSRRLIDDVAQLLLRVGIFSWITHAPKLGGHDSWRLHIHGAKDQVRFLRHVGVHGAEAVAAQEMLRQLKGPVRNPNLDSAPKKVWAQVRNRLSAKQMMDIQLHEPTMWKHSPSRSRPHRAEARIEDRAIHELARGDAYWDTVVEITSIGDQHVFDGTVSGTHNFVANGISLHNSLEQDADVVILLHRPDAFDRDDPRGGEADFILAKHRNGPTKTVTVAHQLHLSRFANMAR
As to the kind of experiment: DnaB intein splicing inhibitors, dose response, biochemical, cell-free fluorescence (AID 449749).

A further assay addresses T2, Protein RecA (Mycobacterium tuberculosis, UniProt P9WHJ3).
T2 sequence (P9WHJ3 whole entry): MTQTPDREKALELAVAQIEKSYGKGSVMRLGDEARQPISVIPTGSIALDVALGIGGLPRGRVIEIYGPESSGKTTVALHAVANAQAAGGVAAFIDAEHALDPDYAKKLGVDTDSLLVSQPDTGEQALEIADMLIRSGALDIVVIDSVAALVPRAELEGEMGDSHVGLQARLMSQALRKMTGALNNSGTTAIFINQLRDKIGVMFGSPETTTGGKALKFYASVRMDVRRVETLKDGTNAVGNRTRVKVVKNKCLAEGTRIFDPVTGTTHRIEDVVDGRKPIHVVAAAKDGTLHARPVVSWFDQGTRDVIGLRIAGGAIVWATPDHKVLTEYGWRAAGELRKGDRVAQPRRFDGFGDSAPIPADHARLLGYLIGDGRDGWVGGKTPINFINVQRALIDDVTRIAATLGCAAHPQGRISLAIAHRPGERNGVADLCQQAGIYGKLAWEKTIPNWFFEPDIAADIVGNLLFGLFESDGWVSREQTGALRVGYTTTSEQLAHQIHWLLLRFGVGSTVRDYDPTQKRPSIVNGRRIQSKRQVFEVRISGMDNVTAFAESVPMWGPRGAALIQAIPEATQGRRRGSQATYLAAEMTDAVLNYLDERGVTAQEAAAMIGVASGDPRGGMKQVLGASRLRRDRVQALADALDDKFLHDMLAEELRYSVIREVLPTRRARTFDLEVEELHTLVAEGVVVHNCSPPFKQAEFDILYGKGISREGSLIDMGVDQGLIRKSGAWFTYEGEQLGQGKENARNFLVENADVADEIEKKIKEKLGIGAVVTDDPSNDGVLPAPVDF
As to the kind of experiment: Fluorescence Cell-Free Homogeneous Dose Retest to Identify Inhibitors of RecA-Intein Splicing Activity. [Related pubchem assays (depositor defined):AID2097, AID2223, AID489010, AID492950].

Assay [2] deals with T3, Sentrin-specific protease 8 (Homo sapiens, UniProt Q96LD8).
T3 sequence (Q96LD8 whole entry): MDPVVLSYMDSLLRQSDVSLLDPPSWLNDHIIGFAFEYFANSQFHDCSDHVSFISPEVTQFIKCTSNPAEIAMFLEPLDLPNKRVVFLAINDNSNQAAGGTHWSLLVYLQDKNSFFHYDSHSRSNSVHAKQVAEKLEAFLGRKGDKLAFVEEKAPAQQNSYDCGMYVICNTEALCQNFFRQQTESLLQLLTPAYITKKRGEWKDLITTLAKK

For assay [3], the target named is T4, Sentrin-specific protease 6 (Homo sapiens, UniProt Q9GZR1).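 Further: Luminescence-based dose-response confirmatory assay of SENP6 inhibition, following up an ultra-high-throughput screen.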
T4 sequence (Q9GZR1 whole entry): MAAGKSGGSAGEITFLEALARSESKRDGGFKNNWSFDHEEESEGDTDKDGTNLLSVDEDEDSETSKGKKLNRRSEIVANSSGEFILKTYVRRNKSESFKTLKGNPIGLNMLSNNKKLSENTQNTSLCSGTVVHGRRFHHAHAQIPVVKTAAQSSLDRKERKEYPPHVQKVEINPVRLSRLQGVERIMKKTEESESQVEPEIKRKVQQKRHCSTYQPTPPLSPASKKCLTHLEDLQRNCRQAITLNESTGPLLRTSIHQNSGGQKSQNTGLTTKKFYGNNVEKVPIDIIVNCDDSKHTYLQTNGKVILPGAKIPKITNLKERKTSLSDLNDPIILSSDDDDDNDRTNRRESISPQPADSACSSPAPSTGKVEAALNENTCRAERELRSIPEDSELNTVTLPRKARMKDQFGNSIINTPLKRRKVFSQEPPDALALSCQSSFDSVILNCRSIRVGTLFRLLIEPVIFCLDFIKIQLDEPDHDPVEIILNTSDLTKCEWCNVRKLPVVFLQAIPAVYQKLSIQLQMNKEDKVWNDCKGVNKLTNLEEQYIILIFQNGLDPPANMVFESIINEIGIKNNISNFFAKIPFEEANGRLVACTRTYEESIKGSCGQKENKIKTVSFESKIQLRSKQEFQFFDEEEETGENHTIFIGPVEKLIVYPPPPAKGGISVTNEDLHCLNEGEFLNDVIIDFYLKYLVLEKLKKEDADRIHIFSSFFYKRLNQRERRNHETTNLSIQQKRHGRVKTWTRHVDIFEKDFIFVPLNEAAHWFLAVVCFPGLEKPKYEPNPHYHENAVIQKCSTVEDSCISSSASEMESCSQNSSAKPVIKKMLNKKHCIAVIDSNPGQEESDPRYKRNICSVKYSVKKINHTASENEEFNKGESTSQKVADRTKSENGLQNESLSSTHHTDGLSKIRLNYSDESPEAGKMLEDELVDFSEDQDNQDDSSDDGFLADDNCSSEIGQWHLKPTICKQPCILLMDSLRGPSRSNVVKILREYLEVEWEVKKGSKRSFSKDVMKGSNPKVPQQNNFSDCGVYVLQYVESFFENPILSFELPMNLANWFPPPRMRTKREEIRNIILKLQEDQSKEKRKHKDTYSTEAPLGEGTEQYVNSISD

The source made the active and inactive calls. Where only a bound is given, the exact number is not on record here.

Broadly, the AC50 is the midpoint of the concentration-response curve, whichever way the signal moves. The EC50 is the concentration needed to bring the measured effect to its halfway point. For `O=C(Nc1ccccc1)c1nnsc1[S+]([O-])c1ccc(Cl)cc1` (stereo not given), the AC50 in assay [1] was 0.964 µM (active). On Protein RecA, the EC50 was 5.92 µM (active).
One may read the IC50 as the concentration needed to halve the response being measured. Turning to `CC1OC(Nc2cccc3ccccc23)C(O)C(O)C1O` (stereo not given), the AC50 in assay [1] is > 380 µM (inactive). Also, the figures for the IC50 in assay [2] and in assay [3] were 6.06 µM (active) and 3.63 µM (active), respectively. Moreover, the EC50 on Protein RecA is 75.1 µM (active).
For the molecule `O=C1C=C(Nc2ccccc2)c2ccccc2C1=O`, in assay [1], the half-maximal activity concentration (AC50) is 0.664 µM (active). The half-maximal inhibitory concentration (IC50) was 9.45 µM (active) in assay [2] and 5.8 µM (active) in assay [3]. In addition, at Protein RecA, the EC50 was 0.723 µM (active).
